{"source": "patent US20190292494A1", "about": "“STABILIZATION OF ENZYMES IN COMPOSITIONS” (BASF SE, priority 2016, published 2019)", "format_in_all_cases": "biochemical", "key": {"[1]": {"target": "T1, protease according SEQ ID No: 1 (Lederbergia lenta, UniProt P29599, R99E)", "T1 sequence (P29599 whole entry R99E)": "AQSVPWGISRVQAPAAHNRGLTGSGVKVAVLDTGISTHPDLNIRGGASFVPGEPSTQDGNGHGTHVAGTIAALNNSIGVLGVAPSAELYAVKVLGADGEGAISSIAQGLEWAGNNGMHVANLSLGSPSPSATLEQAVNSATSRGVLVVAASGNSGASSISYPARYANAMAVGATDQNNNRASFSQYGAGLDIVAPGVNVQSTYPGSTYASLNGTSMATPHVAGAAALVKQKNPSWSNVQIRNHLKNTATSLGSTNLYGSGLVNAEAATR", "settings": "for protease activity: activity without BBA and diol = 100%", "experimental": "(§1) Proteolytic activity of proteases has been measured using succinyl-Ala-Ala-Pro-Phe-p-nitroanilide (Suc-AAPF-pNA, short AAPF) as substrate, wherein pNA is cleaved from the substrate molecule by proteolytic cleavage, resulting in release of yellow color of free pNA which was quantified by measuring OD405.\n(§2) If not indicated otherwise, enzymatic activity was measured at 30° C.\n50 mM phosphate buffer (pH 7.5), 137 μM BBA, 4.8 mM Suc-AAPF-pNA, and 16 nM protease according SEQ ID No: 1 with 135 mM diol or without diol.\nThe protease activity was measured in presence of the Suc-AAPF-pNA substrate and in the absence of BBA and diol, which gives the 100% value in Table B.\nThe protease activity was measured in presence of the Suc-AAPF-pNA substrate and BBA, which gives the stabilization of protease by BBA—see Table C-I.\nThe protease activity was then measured in presence of the Suc-AAPF-pNA substrate and diol (without BBA), which gives the stabilization of protease by diol—see Table C-II.\nThe protease activity was then measured in presence of the Suc-AAPF-pNA substrate and BBA and diol, which gives the stabilization of protease by BBA and diol—see Table C-III."}, "[2]": {"target": "T1, protease according SEQ ID No: 1", "settings": "for protease activity: 2.3% (w/w) diol, 4.4 μM 4-FPBA, 4.8 mM Suc-AAPF-pNA, 16 nM protease, pH 7.5, activity with 4-FPBA only = 100%", "experimental": "as §1, §2\n50 mM phosphate buffer (pH 7.5), 4.4 μM 4-FPBA, 4.8 mM Suc-AAPF-pNA, and 16 nM protease according SEQ ID No: 1 with 2.3% w/w diol or without diol.\nThe protease activity was measured in presence of the Suc-AAPF-pNA substrate and the 4-FPBA only, which gives the 100% value in Table A.\nThe protease activity was also measured in the presence of AAPF-pNA substrate, 4-FPBA and 2.3% diol."}, "[3]": {"target": "protease according to SEQ ID No: 1 (Lederbergia lenta, UniProt P29599, R99E)", "sequence (P29599 whole entry R99E)": "as above", "test": "Storage stability of protease at 45° C. with diol alone (proteolytic activity, Suc-AAPF-pNA)", "settings": "no boron compound; for stabilization of protease by diol alone during storage (in words): storage at 45° C., 20-50% w/w diol", "experimental": "as §1\nTo test the effect of diol alone towards the storage stability of proteases, a protease according to SEQ ID No: 1 was stored at 45° C. with varying concentrations of Propane-1,2-diol and Pentane-1,2-diol as indicated in Table B. 4% active protease according to SEQ ID No: 1 was present before storage for the assessment of its changes in proteolytic activity during storage.\nProteolytic activity was measured in the presence of 4.8 mM Sus-AAPF-pNa. As buffering system 50 mM phosphate buffer was used (pH 7.5). Before storage (time=0), the protease activity measured was set 100%."}, "[4]": {"target": "T1, protease according SEQ ID No: 1", "test": "Mixtures of diols with 4-FPBA: protease activity (Suc-AAPF-pNA)", "experimental": "as §1, §2\n50 mM phosphate buffer (pH 7.5), 4.4 μM 4-FPBA, 4.8 mM Suc-AAPF-pNA, and 16 nM protease according SEQ ID No: 1 with one or two diols.\nThe protease activity was measured in presence of the Suc-AAPF-pNA substrate and 4-FPBA and one or two diols, which gives the stabilization of protease by 4-FPBA and one or two diols—see Table D.\nThe protease activity in presence of the Suc-AAPF-pNA substrate and 4-FPBA only is set 100%."}}, "note": "“Also recorded” adds a separate entry of the source. Like-named read-outs stand apart in the source and are kept apart here.", "data": [{"molecule": "OCCO", "note": "[Ethylen-1,2-glycol, ethane-1,2-diol]", "values": [{"measurement": "protease activity", "setting": "[1]; 135 mM diol with 137 μM BBA", "result": 43, "unit": "%"}, {"measurement": "protease activity", "setting": "[1]; 135 mM diol, without BBA", "result": 97, "unit": "%"}, {"measurement": "protease activity", "setting": "[2]", "result": 54, "unit": "%"}]}, {"molecule": "CCCC(O)CO", "note": "(centres unmarked) [Pentane-1,2-diol, pentane-1,2-diol]", "values": [{"measurement": "stabilization of protease by diol alone during storage (in words)", "setting": "[3]", "result": "does not stabilize the protease, but rather destabilizes the protease"}, {"measurement": "stabilization of protease by diol in the presence of BBA (in words)", "setting": "[1]; 135 mM diol with 137 μM BBA", "result": "best increasing effect on stabilization of protease; also recorded: synergistic stabilization"}, {"measurement": "inhibitory effect towards proteolytic activity (in words)", "setting": "[1]; diol alone (135 mM, without BBA), of the diols tested", "result": "best inhibitory effect"}, {"measurement": "stabilization of protease in the presence of 4-FPBA (in words)", "setting": "[4]; of the diols tested, with 4-FPBA", "result": "stabilizes protease best"}, {"measurement": "inhibitory effect towards proteolytic activity (in words)", "setting": "[2]; diol added to 4-FPBA, compared to the other diols used", "result": "strong inhibitory effect"}]}, {"molecule": "CC(O)CO", "note": "(centres unmarked) [Propane-1,2-diol, propane-1,2-diol]", "values": [{"measurement": "proteolytic activity before and after storage", "setting": "[3]; 20% w/w diol, 1 day at 45° C.", "result": 82, "unit": "%"}, {"measurement": "proteolytic activity before and after storage", "setting": "[3]; 20% w/w diol, 3 days at 45° C.", "result": 64, "unit": "%"}, {"measurement": "proteolytic activity before and after storage", "setting": "[3]; 20% w/w diol, 7 days at 45° C.", "result": 46, "unit": "%"}, {"measurement": "proteolytic activity before and after storage", "setting": "[3]; 20% w/w diol, 14 days at 45° C.", "result": 30, "unit": "%"}, {"measurement": "proteolytic activity before and after storage", "setting": "[3]; 20% w/w diol, cero (before storage, set 100%)", "result": 100, "unit": "%"}, {"measurement": "proteolytic activity before and after storage", "setting": "[3]; 30% w/w diol, 1 day at 45° C.", "result": 92, "unit": "%"}, {"measurement": "proteolytic activity before and after storage", "setting": "[3]; 30% w/w diol, 3 days at 45° C.", "result": 80, "unit": "%"}, {"measurement": "proteolytic activity before and after storage", "setting": "[3]; 30% w/w diol, 7 days at 45° C.", "result": 62, "unit": "%"}, {"measurement": "proteolytic activity before and after storage", "setting": "[3]; 30% w/w diol, 14 days at 45° C.", "result": 47, "unit": "%"}, {"measurement": "proteolytic activity before and after storage", "setting": "[3]; 30% w/w diol, cero (before storage, set 100%)", "result": 100, "unit": "%"}, {"measurement": "proteolytic activity before and after storage", "setting": "[3]; 50% w/w diol, 1 day at 45° C.", "result": 94, "unit": "%"}, {"measurement": "proteolytic activity before and after storage", "setting": "[3]; 50% w/w diol, 3 days at 45° C.", "result": 92, "unit": "%"}, {"measurement": "proteolytic activity before and after storage", "setting": "[3]; 50% w/w diol, 7 days at 45° C.", "result": 79, "unit": "%"}, {"measurement": "proteolytic activity before and after storage", "setting": "[3]; 50% w/w diol, 14 days at 45° C.", "result": 66, "unit": "%"}, {"measurement": "proteolytic activity before and after storage", "setting": "[3]; 50% w/w diol, cero (before storage, set 100%)", "result": 100, "unit": "%"}, {"measurement": "stabilization of protease by diol alone during storage (in words)", "setting": "[3]", "result": "stabilize the protease increasingly"}, {"measurement": "protease activity", "setting": "[1]; 135 mM diol with 137 μM BBA", "result": 40, "unit": "%"}, {"measurement": "protease activity", "setting": "[1]; 135 mM diol, without BBA", "result": 94, "unit": "%"}, {"measurement": "protease activity", "setting": "[4]; Propane-1,2-diol 120 mM, Pentane-1,2-diol 0 mM, 4.4 μM 4-FPBA, 4-FPBA only = 100%", "result": 91, "unit": "%"}, {"measurement": "protease activity", "setting": "[2]", "result": 91, "unit": "%"}]}, {"molecule": "benzene boronic acid [BBA]", "values": [{"measurement": "protease activity", "setting": "[1]; 137 μM BBA, no diol", "result": 66, "unit": "%"}]}]}
